Where two headings read alike, the source gives them in different places.
Key:
[1] = molecular target: T1, human recombinant norepinephrine (NE) uptake site (Homo sapiens, UniProt P23975); experiment: Binding at the norepinephrine (NE) uptake site
T1 construct: expressed in transfected cells

[2] = molecular target: nonselective muscarinic receptor; experiment: Binding at the nonselective muscarinic receptor; design: species or system rat
[3] = molecular target: serotonin (5-HT) uptake site (Rattus norvegicus, UniProt P31652); conditions: summary of the table data
Sequence of serotonin (5-HT) uptake site (P31652 whole entry): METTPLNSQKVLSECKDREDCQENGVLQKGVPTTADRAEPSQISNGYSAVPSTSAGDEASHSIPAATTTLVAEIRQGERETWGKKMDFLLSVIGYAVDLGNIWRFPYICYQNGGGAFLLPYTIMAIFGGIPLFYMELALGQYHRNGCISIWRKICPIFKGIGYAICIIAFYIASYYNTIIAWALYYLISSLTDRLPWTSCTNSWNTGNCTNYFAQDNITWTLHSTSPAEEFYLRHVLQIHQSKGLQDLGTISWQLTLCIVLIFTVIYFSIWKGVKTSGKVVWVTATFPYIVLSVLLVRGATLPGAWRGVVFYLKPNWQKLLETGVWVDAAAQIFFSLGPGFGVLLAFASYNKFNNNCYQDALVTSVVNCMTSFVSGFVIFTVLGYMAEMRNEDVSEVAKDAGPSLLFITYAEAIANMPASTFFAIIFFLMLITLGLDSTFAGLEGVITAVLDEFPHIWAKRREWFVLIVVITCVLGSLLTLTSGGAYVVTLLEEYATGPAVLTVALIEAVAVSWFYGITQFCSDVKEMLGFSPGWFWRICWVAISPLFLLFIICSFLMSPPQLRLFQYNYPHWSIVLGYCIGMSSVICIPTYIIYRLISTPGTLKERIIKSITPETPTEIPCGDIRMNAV
Method: IC50 values (concentration required to inhibit 50% specific binding) were then determined by nonlinear regression analysis of the curves and tabulated below.

T1 sequence (P23975 whole entry): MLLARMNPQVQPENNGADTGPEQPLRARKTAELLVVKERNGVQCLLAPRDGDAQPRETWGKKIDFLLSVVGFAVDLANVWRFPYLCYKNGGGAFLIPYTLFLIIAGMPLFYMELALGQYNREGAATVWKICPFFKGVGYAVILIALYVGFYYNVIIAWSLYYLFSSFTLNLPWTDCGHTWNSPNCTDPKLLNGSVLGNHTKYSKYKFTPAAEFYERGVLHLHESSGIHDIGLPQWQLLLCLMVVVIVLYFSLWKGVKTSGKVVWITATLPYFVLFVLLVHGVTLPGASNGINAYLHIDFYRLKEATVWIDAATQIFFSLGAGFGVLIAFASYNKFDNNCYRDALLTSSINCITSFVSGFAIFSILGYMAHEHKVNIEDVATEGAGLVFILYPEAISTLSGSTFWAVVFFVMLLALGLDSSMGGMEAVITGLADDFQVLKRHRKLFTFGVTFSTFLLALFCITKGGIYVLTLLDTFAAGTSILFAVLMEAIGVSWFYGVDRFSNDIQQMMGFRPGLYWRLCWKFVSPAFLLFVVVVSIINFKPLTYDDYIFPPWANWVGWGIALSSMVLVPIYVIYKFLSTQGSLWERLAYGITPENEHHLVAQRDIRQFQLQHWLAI

CC(C)C[C@@H](N)C1(c2ccc(Cl)cc2)CCC1 [(R)-DDMS]
IC50 [1]: 13 nM

CN1[C@@H]2CC[C@H]1C[C@@H](OC(=O)C(CO)c1ccccc1)C2 (stereo partly shown) [Atropine, reference compound]
IC50 ([2]; rat cerebral cortex, inhibition of specific binding, competition curves, read-out: Binding IC50 Values (nM) Mucarinic Receptor): 0.31 nM

CC(C)C[C@H](N)C1(c2ccc(Cl)cc2)CCC1 [(S)-DDMS, 1-[1-(4-chlorophenyl)cyclobutyl]-3-methyl-butylamine]
Affinity for the muscarinic site, result in words ([2]; summary of the table data): without appreciable 5-HT or muscarinic activity | IC50 [1]: 6.2 nM | NE uptake site binding, result in words ([1]; summary of the table data): potent inhibitor of NE uptake | 5-HT uptake site binding, result in words [3]: without appreciable 5-HT or muscarinic activity

CC(C)CC(N)C1(c2ccc(Cl)cc2)CCC1 (racemic) [(R/S)-DDMS]
IC50 ([1]; human recombinant NE uptake site, single value or first value before slash, read-out: Binding IC50 Values (nM) NE Uptake): 16 nM

From patent US20050228052A1, “Methods of treating, preventing and managing a sleep disorder using (S)-didesmethylsibutramine” (priority 2004, published 2005)
